Reference: ChEMBL document CHEMBL5634160, “Synthesis, biological evaluation and action mechanism of 7H-[1,2,4] triazolo [3,4-b] [1,3,4] thiadiazine-phenylhydrazone derivatives as α-glucosidase inhibitors” (Eur J Med Chem, 2023)

Target: Alpha-glucosidase (Saccharomyces cerevisiae S288c, UniProt P53341+P38158+P07265)
Assay: Inhibition of Saccharomyces cerevisiae alpha-glucosidase using nitrophenol-alpha-D-glucopyranoside (pNPG) as substrate incubated for 15 mins
Type: protein assay

IC50 | Structure (SMILES)
42.36 µM | Clc1cccc(/C=N/Nc2nnc3n2N=C(c2ccccc2)CS3)c1
91.47 µM | COc1cc(/C=N/Nc2nnc3n2N=C(c2ccccc2)CS3)cc(OC)c1OC
114.9 µM | COc1ccccc1/C=N/Nc1nnc2n1N=C(c1ccccc1)CS2
32.12 µM | Brc1ccccc1/C=N/Nc1nnc2n1N=C(c1ccccc1)CS2

Second part, the molecule before the results:

Structure (SMILES) | IC50
Oc1ccc(/C=N/Nc2nnc3n2N=C(c2ccccc2)CS3)cc1 | 213.5 µM
CN(C)c1ccc(/C=N/Nc2nnc3n2N=C(c2ccccc2)CS3)cc1 | 35.58 µM
COc1ccc(/C=N/Nc2nnc3n2N=C(c2ccccc2)CS3)cc1OC | 140.2 µM
Oc1cccc(/C=N/Nc2nnc3n2N=C(c2ccccc2)CS3)c1 | 135.7 µM
